Results taken from patent US8686044B2, “Amide derivative, pest control agent containing the amide derivative, and use of the amide derivative” (Mitsui Chemicals Agro, Inc., priority 2008, dated 2014).

Experiments:
Type in all cases: in vivo
Laodelphax striatellus = experiment: Pesticidal test against Laodelphax striatellus (rice seedling spray); conditions: 144 h, concentration 100 ppm, 3-stage larvae, examined after 6 days, 25° C., read-out: pesticidal rate
Method: Pesticidal Test against Laodelphax striatellus
2.5 ml of an acetone solution in which a test compound had been prepared at a predetermined concentration was sprayed on rice seedlings, air-dried, and then put into a glass tube having a diameter of 3 cm and a height of 13 cm, having water therein, and 3-stage larvae of Laodelphax striatellus were released and the tube was capped. They were left to stand in a thermostatic chamber at 25° C., and the numbers of the living pests and the dead pests were examined after 6 days. The test was carried out with ten larvae per group in two replicates.

Spodoptera litura = experiment: Pesticidal test against Spodoptera litura (cabbage leaf dip); conditions: foliar, 144 h, 2-stage larvae, examined after 6 days, 25° C., read-out: pesticidal rate; for pest or weed control at 1 ppm: concentration 1 ppm; for pest or weed control at 10 ppm: concentration 10 ppm
Method: (§1) Pesticidal Test against Spodoptera litura A piece of a cabbage leaf was immersed for 30 seconds in a chemical solution in which a test compound had been prepared at a predetermined concentration, and air-dried, and then put into a 7 cm polyethylene cup having a filter paper laid on the bottom thereof, and 2-stage larvae of Spodoptera litura were released. They were left to stand in a thermostatic chamber at 25° C., and the numbers of the living pests and the dead pests were examined after 6 days. The test was carried out with five larvae per group in two replicates. Further, the following compound (A) disclosed in the pamphlet of International Publication WO 2005/073165 was used as a comparative compound.

Plutella xylostella = experiment: Pesticidal test against Plutella xylostella (cabbage leaf dip); conditions: foliar, 144 h, 2-stage larvae, examined after 6 days, 25° C., read-out: pesticidal rate; for pest or weed control at 1 ppm: concentration 1 ppm; for pest or weed control at 10 ppm: concentration 10 ppm
Method: as §1, with “Plutella xylostella” for “Spodoptera litura”, “above” for “following”, “(A)” for “(A) disclosed in the pamphlet of International Publication WO 2005/073165”

| SMILES | pest or weed control at 100 ppm (Laodelphax striatellus) [%] | pest or weed control at 1 ppm (Spodoptera litura) [%] | pest or weed control at 1 ppm (Plutella xylostella) [%] | pest or weed control at 10 ppm (Plutella xylostella) [%] | pest or weed control at 10 ppm (Spodoptera litura) [%] |
| --- | --- | --- | --- | --- | --- |
| O=C(Nc1cccc(C(=O)Nc2c(I)cc(C(F)(C(F)(F)F)C(F)(F)F)cc2C(F)(F)F)c1F)c1cccnc1Cl [6-1766] | ≥ 70 | ≥ 70 | ≥ 70 | – | – |
| CN(C(=O)c1cccc(NC(=O)c2cccnc2Cl)c1)c1c(Br)cc(C(F)(C(F)(F)F)C(F)(F)F)cc1C(F)(F)F [8-304] | ≥ 70 | ≥ 70 | ≥ 70 | – | – |
| O=C(Nc1cccc(C(=O)Nc2c(Br)cc(C(F)(C(F)(F)F)C(F)(F)F)cc2C(F)(F)F)c1)c1ccccc1 [6-268] | ≥ 70 | ≥ 70 | ≥ 70 | – | – |
| CN(C(=O)c1ccncc1)c1cccc(C(=O)Nc2c(Br)cc(C(F)(C(F)(F)F)C(F)(F)F)cc2C(F)(F)F)c1F [7-1639] | ≥ 70 | ≥ 70 | ≥ 70 | – | – |
| O=C(Nc1cccc(C(=O)Nc2c(I)cc(C(F)(C(F)(F)F)C(F)(F)C(F)(F)F)cc2I)c1F)c1cccc(F)c1 (centres unmarked) [6-1340] | ≥ 70 | ≥ 70 | ≥ 70 | – | – |
| N#Cc1ccc(C(=O)Nc2cc(C(=O)Nc3c(Cl)cc(C(F)(C(F)(F)F)C(F)(F)F)cc3C(F)(F)F)ccc2C#N)cc1 [1-491] | ≥ 70 | ≥ 70 | ≥ 70 | – | – |
| CN(C(=O)c1cccc(C#N)c1)c1cccc(C(=O)N(C)c2c(Br)cc(C(F)(C(F)(F)F)C(F)(F)F)cc2C(F)(F)F)c1 [9-290] | ≥ 70 | ≥ 70 | ≥ 70 | – | – |
| O=C(Nc1cccc(C(=O)Nc2c(I)cc(C(F)(C(F)(F)F)C(F)(F)C(F)(F)F)cc2I)c1)c1cccc(F)c1 (centres unmarked) [6-5903] | ≥ 70 | ≥ 70 | ≥ 70 | – | – |
| CN(C(=O)c1ccccc1)c1cccc(C(=O)Nc2c(Br)cc(C(F)(C(F)(F)F)C(F)(F)C(F)(F)F)cc2Br)c1F (centres unmarked) [7-1182, N-(2,6-dibromo-4-(perfluorobutan-2-yl)phenyl)-2-fluoro-3-(N-methylbenzamide)benzamide] | ≥ 70 | ≥ 70 | ≥ 70 | – | – |
| CN(C(=O)c1cccc(C#N)c1)c1cccc(C(=O)Nc2c(Br)cc(C(F)(C(F)(F)F)C(F)(F)F)cc2C(F)(F)F)c1 [7-288] | ≥ 70 | ≥ 70 | ≥ 70 | – | – |
| CN(C(=O)c1ccccc1F)c1cccc(C(=O)Nc2c(I)cc(C(F)(C(F)(F)F)C(F)(F)C(F)(F)F)cc2I)c1F (centres unmarked) [7-1339] | ≥ 70 | ≥ 70 | ≥ 70 | – | – |
| CN(C(=O)c1ccc(C#N)cc1)c1cc(C(=O)Nc2c(Cl)cc(C(F)(C(F)(F)F)C(F)(F)F)cc2C(F)(F)F)ccc1C#N [2-491, N-(2-chloro-4-(perfluoropropan-2-yl)-6-(trifluoromethyl)phenyl)-4-cyano-3-(4-cyano-N-methylbenzamide)benzamide] | ≥ 70 | ≥ 70 | ≥ 70 | – | – |
| O=C(Nc1cccc(C(=O)Nc2c(Br)cc(C(F)(C(F)(F)F)C(F)(F)F)cc2Br)c1F)c1cccnc1Cl [6-1140, 2-chloro-N-(3-(2,6-dibromo-4-(perfluoropropan-2-yl)phenylcarbamoyl)-2-fluorophenyl)nicotinamide] | ≥ 70 | ≥ 70 | ≥ 70 | – | – |
| O=C(Nc1cccc(C(=O)Nc2c(I)cc(C(F)(C(F)(F)F)C(F)(F)C(F)(F)F)cc2I)c1F)c1ccccc1F (centres unmarked) [6-1339] | ≥ 70 | ≥ 70 | ≥ 70 | – | – |
| CN(C(=O)c1ccc(C#N)cc1)c1cccc(C(=O)Nc2c(Br)cc(C(F)(C(F)(F)F)C(F)(F)F)cc2C(F)(F)F)c1 [7-289] | ≥ 70 | ≥ 70 | ≥ 70 | – | – |
| CN(C(=O)c1cccc(F)c1)c1cccc(C(=O)Nc2c(Br)cc(C(F)(C(F)(F)F)C(F)(F)F)cc2C(F)(F)F)c1 [7-270] | – | ≥ 70 | – | ≥ 70 | – |

| SMILES | pest or weed control at 100 ppm (Laodelphax striatellus) [%] | pest or weed control at 1 ppm (Spodoptera litura) [%] | pest or weed control at 1 ppm (Plutella xylostella) [%] | pest or weed control at 10 ppm (Plutella xylostella) [%] | pest or weed control at 10 ppm (Spodoptera litura) [%] |
| --- | --- | --- | --- | --- | --- |
| CN(C(=O)c1cccc(C#N)c1)c1cccc(C(=O)Nc2c(C(F)(F)F)cc(C(F)(C(F)(F)F)C(F)(F)F)cc2C(F)(F)F)c1 [7-824] | – | ≥ 70 | ≥ 70 | – | – |
| COC(=O)c1cc(C#N)cc(C(=O)N(C)c2cccc(C(=O)Nc3c(Br)cc(C(F)(C(F)(F)F)C(F)(F)F)cc3C(F)(F)F)c2F)c1 [7-5910] | – | ≥ 70 | ≥ 70 | – | – |
| N#Cc1cccc(C(=O)Nc2cccc(C(=O)Nc3c(C(F)(F)F)cc(C(F)(C(F)(F)F)C(F)(F)F)cc3C(F)(F)F)c2)c1 [6-824] | – | ≥ 70 | ≥ 70 | – | – |
| O=C(Nc1cccc(C(=O)Nc2c(I)cc(C(F)(C(F)(F)F)C(F)(F)C(F)(F)F)cc2C(F)(F)F)c1)c1ccc(Cl)nc1 (centres unmarked) [6-545] | – | ≥ 70 | ≥ 70 | – | – |
| CN(C(=O)c1ccc(Cl)nc1)c1cc(C(=O)Nc2c(Cl)cc(C(F)(C(F)(F)F)C(F)(F)F)cc2C(F)(F)F)ccc1C#N [2-513] | – | – | ≥ 70 | – | ≥ 70 |
| O=C(Nc1cccc(C(=O)Nc2c(I)cc(C(F)(C(F)(F)F)C(F)(F)C(F)(F)F)cc2C(F)(F)F)c1)c1ccccc1 (centres unmarked) [6-502] | – | ≥ 70 | ≥ 70 | – | – |
| O=C(Nc1cccc(C(=O)Nc2c(I)cc(C(F)(C(F)(F)F)C(F)(F)F)cc2C(F)(F)F)c1)c1ccccc1 [6-424] | – | ≥ 70 | ≥ 70 | – | – |
| CN(C(=O)c1ccc(C#N)cc1)c1cccc(C(=O)Nc2c(Br)cc(C(F)(C(F)(F)F)C(F)(F)C(F)(F)F)cc2Br)c1 (centres unmarked) [7-46] | – | ≥ 70 | ≥ 70 | – | – |
| CN(C(=O)c1cc(C#N)cc(C#N)c1)c1cccc(C(=O)Nc2c(Br)cc(C(F)(C(F)(F)F)C(F)(F)F)cc2C(F)(F)F)c1 [7-299] | – | ≥ 70 | ≥ 70 | – | – |
| CN(C(=O)c1ccccc1F)c1cccc(C(=O)Nc2c(Br)cc(C(F)(C(F)(F)F)C(F)(F)F)cc2C(F)(F)F)c1 [7-269] | – | ≥ 70 | – | ≥ 70 | – |
| CN(C(=O)c1ccc(C#N)nc1)c1cc(C(=O)Nc2c(Cl)cc(C(F)(C(F)(F)F)C(F)(F)F)cc2C(F)(F)F)ccc1C#N [2-518] | – | – | – | ≥ 70 | ≥ 70 |
| N#Cc1ccc(C(=O)Nc2c(Cl)cc(C(F)(C(F)(F)F)C(F)(F)F)cc2C(F)(F)F)cc1NC(=O)c1cccnc1Cl [1-506] | – | – | – | ≥ 70 | ≥ 70 |
| O=C(Nc1c(C(F)(F)F)cc(C(F)(C(F)(F)F)C(F)(F)F)cc1C(F)(F)F)c1cccc(NC(=O)c2cccnc2Cl)c1 [6-840] | – | ≥ 70 | ≥ 70 | – | – |
| N#Cc1cccc(C(=O)Nc2cccc(C(=O)Nc3c(I)cc(C(F)(C(F)(F)F)C(F)(F)C(F)(F)F)cc3I)c2)c1 (centres unmarked) [6-78] | – | ≥ 70 | ≥ 70 | – | – |
| CN(C(=O)c1ccc(Cl)nc1)c1cccc(C(=O)Nc2c(Br)cc(C(F)(C(F)(F)F)C(F)(F)C(F)(F)F)cc2Br)c1 (centres unmarked) [7-60] | – | ≥ 70 | ≥ 70 | – | – |
